Measured values: patent US20240158446A1, “CYCLIC COMPOUND HAVING SELECTIVE INHIBITORY ACTION ON KRAS OVER HRAS AND NRAS” (CHUGAI SEIYAKU KABUSHIKI KAISHA, priority 2021, published 2024)

Key:
[1] = molecular target: GDP-bound NRAS wild-type protein (Homo sapiens, UniProt P01111); experiment: Binding to NRAS by surface plasmon resonance (SPR), Single Cycle Kinetics; details: SPR, GDP-bound NRAS wild-type protein vs GDP-bound KRAS wild-type protein
[2] = molecular target: GDP-bound HRAS wild-type protein (Homo sapiens, UniProt P01112); experiment: Binding to HRAS by surface plasmon resonance (SPR), Single Cycle Kinetics; details: SPR, GDP-bound HRAS wild-type protein vs GDP-bound KRAS wild-type protein
Sequence of GDP-bound HRAS wild-type protein (P01112 whole entry): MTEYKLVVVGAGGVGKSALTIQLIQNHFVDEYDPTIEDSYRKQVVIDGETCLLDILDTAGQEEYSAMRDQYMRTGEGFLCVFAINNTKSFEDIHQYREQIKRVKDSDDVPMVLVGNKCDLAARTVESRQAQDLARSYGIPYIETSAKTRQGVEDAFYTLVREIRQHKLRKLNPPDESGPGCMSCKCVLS

Sequence of GDP-bound NRAS wild-type protein (P01111 whole entry): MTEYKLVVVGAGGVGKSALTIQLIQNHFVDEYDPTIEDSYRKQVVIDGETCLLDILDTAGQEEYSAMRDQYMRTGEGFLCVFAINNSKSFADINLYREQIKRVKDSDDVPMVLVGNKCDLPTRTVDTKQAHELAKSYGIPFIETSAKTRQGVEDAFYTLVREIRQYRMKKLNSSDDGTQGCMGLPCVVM

| SMILES | NRAS/KRAS (ratio of KD value for NRAS to KD value for KRAS) [1] | HRAS/KRAS (ratio of KD value for HRAS to KD value for KRAS) [2] |
| --- | --- | --- |
| CCOC[C@H]1C(=O)N[C@@H]([C@@H](C)CC)C(=O)N(C)CC(=O)N(C)[C@H]2CCCCCN(C2=O)[C@@H](Cc2ccc(C(F)(F)F)cc2)C(=O)N(C)CC(=O)N[C@@H](CCc2cc(F)c(C(F)(F)F)c(F)c2)C(=O)N2C[C@H](OCC)C[C@H]2C(=O)NC2(CCC2)C(=O)N(C)[C@@H](C2CCCC2)C(=O)N(C)[C@H](C(=O)N2CCOCC2)CC(=O)N1C [PP0851] | B (a compound having 3 or more and less than 10 is denoted as B) | B (a compound having 3 or more and less than 10 is denoted as B) |
| CCO[C@@H]1C[C@H]2C(=O)NC3(CCC3)C(=O)N(C)[C@@H](C3CCCC3)C(=O)N(C)[C@H](C(=O)N3CCOCC3)CC(=O)N(C)[C@@H](COC3CC3)C(=O)N[C@@H]([C@@H](C)CC)C(=O)N(C)CC(=O)N(C)[C@H]3CCCCCN(C3=O)[C@@H](Cc3ccc(C(F)(F)F)cc3)C(=O)N(C)CC(=O)N[C@@H](CCc3cc(F)c(C(F)(F)F)c(F)c3)C(=O)N2C1 [PP0852] | B (a compound having 3 or more and less than 10 is denoted as B) | B (a compound having 3 or more and less than 10 is denoted as B) |
| CC[C@H](C)[C@@H]1NC(=O)[C@H](CC(C)C)N(C)C(=O)C[C@@H](C(=O)N2CCOCC2)N(C)C(=O)[C@H](C2CCCC2)N(C)C(=O)C2(CCC2)NC(=O)[C@@H]2C[C@@H](O)CN2C(=O)[C@H](CCc2cc(F)c(C(F)(F)F)c(F)c2)NC(=O)CN(C)C(=O)[C@H](Cc2ccc(C(F)(F)F)cc2)N2CCCCC[C@@H](C2=O)N(C)C(=O)CN(C)C1=O [PP0871] | B (a compound having 3 or more and less than 10 is denoted as B) | B (a compound having 3 or more and less than 10 is denoted as B) |
| CC[C@H](C)[C@@H]1NC(=O)[C@H](CC(C)C)N(C)C(=O)C[C@@H](C(=O)N2CCOCC2)N(C)C(=O)[C@H](C2CCCC2)N(C)C(=O)C2(CCC2)NC(=O)[C@@H]2[C@@H](O)CCN2C(=O)[C@H](CCc2cc(F)c(C(F)(F)F)c(F)c2)NC(=O)CN(C)C(=O)[C@H](Cc2ccc(C(F)(F)F)cc2)N2CCCCC[C@@H](C2=O)N(C)C(=O)CN(C)C1=O [PP0872] | A (a compound having 10 or more and less than 20 is denoted as A) | A (a compound having 10 or more and less than 20 is denoted as A) |
| CC[C@H](C)[C@@H]1NC(=O)[C@H](CC(C)C)N(C)C(=O)C[C@@H](C(=O)N2CCOCC2)N(C)C(=O)[C@H](C2CCCC2)N(C)C(=O)C2(CCC2)NC(=O)[C@@H]2[C@H](O)CCN2C(=O)[C@H](CCc2cc(F)c(C(F)(F)F)c(F)c2)NC(=O)CN(C)C(=O)[C@H](Cc2ccc(C(F)(F)F)cc2)N2CCCCC[C@@H](C2=O)N(C)C(=O)CN(C)C1=O [PP0873] | A (a compound having 10 or more and less than 20 is denoted as A) | B (a compound having 3 or more and less than 10 is denoted as B) |
| C=CCCC[C@H]1C(=O)N[C@@H]([C@@H](C)CC)C(=O)N(C)CC(=O)N(C)[C@H]2CCCCCN(C2=O)[C@@H](Cc2ccc(C(F)(F)F)cc2)C(=O)N(C)CC(=O)N[C@@H](CCc2cc(F)c(C(F)(F)F)c(F)c2)C(=O)N2C[C@H](OCC)C[C@H]2C(=O)N[C@](C)(CC=C)C(=O)N(C)[C@@H](C2CCCC2)C(=O)N(C)[C@H](C(=O)N2CCOCC2)CC(=O)N1C [PP0880] | B (a compound having 3 or more and less than 10 is denoted as B) | B (a compound having 3 or more and less than 10 is denoted as B) |
| CCCN1C(=O)CN(C)C(=O)CN(C)C(=O)[C@H]([C@@H](C)CC)NC(=O)[C@@H]2CCCCOc3ccc(cc3)C[C@H]1C(=O)N(C)CC(=O)N[C@@H](CCc1cc(F)c(C(F)(F)F)c(F)c1)C(=O)N1C[C@H](OCC)C[C@H]1C(=O)NC1(CCCC1)C(=O)N(C)[C@@H](C1CCCC1)C(=O)N(C)[C@H](C(=O)N(C)C)CC(=O)N2C [PP0894] | C (A compound having a KD ratio of 0.1 or more and less than 3 is denoted as C) | C (A compound having a KD ratio of 0.1 or more and less than 3 is denoted as C) |
| CCO[C@@H]1C[C@H]2C(=O)NC3(CCC3)C(=O)N(C)[C@@H](C3CCCC3)C(=O)N(C)[C@H](C(=O)N(C)C)CC(=O)N(C)[C@@H](CC)C(=O)N[C@@H]([C@@H](C)CC)C(=O)N(C)CC(=O)N(C)[C@H]3CCCCCN(C3=O)[C@@H](Cc3ccc4ccsc4c3)C(=O)N(C)CC(=O)N[C@@H](CCc3cc(F)c(C(F)(F)F)c(F)c3)C(=O)N2C1 [PP0910] | B (a compound having 3 or more and less than 10 is denoted as B) | B (a compound having 3 or more and less than 10 is denoted as B) |
| CCO[C@@H]1C[C@H]2C(=O)NC3(CCC3)C(=O)N(C)[C@@H](C3CCCC3)C(=O)N(CC)[C@H](C(=O)N3CCOCC3)CC(=O)N(C)[C@@H](CCC(Cl)Cl)C(=O)N[C@@H]([C@@H](C)CC)C(=O)N(C)CC(=O)N(C)[C@H]3CCCCCN(C3=O)[C@@H](Cc3ccc(C(F)(F)F)cc3)C(=O)N(C)CC(=O)N[C@@H](CCc3cc(F)c(C(F)(F)F)c(F)c3)C(=O)N2C1 [PP0949] | A (a compound having 10 or more and less than 20 is denoted as A) | A (a compound having 10 or more and less than 20 is denoted as A) |
| CC[C@H](C)[C@@H]1NC(=O)[C@H](CC(C)C)N(C)C(=O)C[C@@H](C(=O)N2CCOCC2)N(C)C(=O)[C@H](C2CCCC2)N(C)C(=O)C2(CCCC2)NC(=O)[C@@H]2CCCN2C(=O)[C@H](CCc2cc(F)c(C(F)(F)F)c(F)c2)NC(=O)CN(C)C(=O)[C@H](Cc2ccc(F)cc2)N2CCCCC[C@@H](C2=O)N(C)C(=O)CN(C)C1=O [PP0964] | B (a compound having 3 or more and less than 10 is denoted as B) | B (a compound having 3 or more and less than 10 is denoted as B) |
| CCO[C@@H]1C[C@H]2C(=O)NC3(CCCC3)C(=O)N(C)[C@@H](C3CCCC3)C(=O)N(C)[C@H](C(=O)N3CCOCC3)CC(=O)N(C)[C@@H](CC(C)C)C(=O)N[C@@H]([C@@H](C)CC)C(=O)N(C)CC(=O)N(C)[C@H]3CCCCCN(C3=O)[C@@H](Cc3ccc(F)cc3)C(=O)N(C)CC(=O)N[C@@H](CCc3ccc(C(F)(F)F)c(Cl)c3)C(=O)N2C1 [PP0965] | B (a compound having 3 or more and less than 10 is denoted as B) | B (a compound having 3 or more and less than 10 is denoted as B) |
| CCO[C@@H]1C[C@H]2C(=O)NC3(CCC3)C(=O)N(C)[C@@H](C3CCCC3)C(=O)N(C)[C@H](C(=O)N3CCOCC3)CC(=O)N(C)[C@@H](CC(C)C)C(=O)N[C@@H]([C@@H](C)CC)C(=O)N(C)CC(=O)N(C)[C@H]3CCCCCN(C3=O)[C@@H](Cc3ccc(F)cc3)C(=O)N(C)CC(=O)N[C@@H](CCc3ccc(C(F)(F)F)c(Cl)c3)C(=O)N2C1 [PP0968] | B (a compound having 3 or more and less than 10 is denoted as B) | B (a compound having 3 or more and less than 10 is denoted as B) |
| CC[C@H](C)[C@@H]1NC(=O)[C@H](CC(C)C)N(C)C(=O)C[C@@H](C(=O)N2CCOCC2)N(C)C(=O)[C@H](C2CCCC2)N(C)C(=O)C2(CCC2)NC(=O)[C@@H]2CC(F)(F)CN2C(=O)[C@H](CCc2ccc(C(F)(F)F)c(Cl)c2)NC(=O)CN(C)C(=O)[C@H](Cc2ccc(F)cc2)N2CCCCC[C@@H](C2=O)N(C)C(=O)CN(C)C1=O [PP0969] | B (a compound having 3 or more and less than 10 is denoted as B) | B (a compound having 3 or more and less than 10 is denoted as B) |
| CC[C@H](C)[C@@H]1NC(=O)[C@H](CC(C)C)N(C)C(=O)C[C@@H](C(=O)N(C)C)N(C)C(=O)[C@H](C2CCCC2)N(C)C(=O)C2(CCCC2)NC(=O)[C@@H]2CCCN2C(=O)[C@H](CCc2ccc(C(F)(F)F)c(Cl)c2)NC(=O)CN(C)C(=O)[C@H](Cc2ccc(F)cc2)N2CCCCC[C@@H](C2=O)N(C)C(=O)CN(C)C1=O [PP0971] | B (a compound having 3 or more and less than 10 is denoted as B) | B (a compound having 3 or more and less than 10 is denoted as B) |
| CCO[C@@H]1C[C@H]2C(=O)NC3(CCC3)C(=O)N(C)[C@@H](C3CCCC3)C(=O)N(C)[C@H](C(=O)N(C)C)CC(=O)N(C)[C@@H](CC(C)C)C(=O)N[C@@H]([C@@H](C)CC)C(=O)N(C)CC(=O)N(C)[C@H]3CCCCCN(C3=O)[C@@H](Cc3ccc(F)cc3)C(=O)N(C)CC(=O)N[C@@H](CCc3ccc(C(F)(F)F)c(Cl)c3)C(=O)N2C1 [PP0972] | B (a compound having 3 or more and less than 10 is denoted as B) | B (a compound having 3 or more and less than 10 is denoted as B) |
| CC[C@H](C)[C@@H]1NC(=O)[C@H](CC(C)C)N(C)C(=O)C[C@@H](C(=O)N2CCOCC2)N(C)C(=O)[C@H](C2CCCC2)N(C)C(=O)C2(CCC2)NC(=O)[C@@H]2C[C@@H](OCC3CC3)CN2C(=O)[C@H](CCc2cc(F)c(C(F)(F)F)c(F)c2)NC(=O)CN(C)C(=O)[C@H](Cc2ccc(C(F)(F)F)cc2)N2CCCC[C@@H](C2=O)N(C)C(=O)CN(C)C1=O [PP1000] | B (a compound having 3 or more and less than 10 is denoted as B) | B (a compound having 3 or more and less than 10 is denoted as B) |
